From US11162083B2, “Peptide based inhibitors of Raf kinase protein dimerization and kinase activity” (UNIVERSITY OF SOUTH CAROLINA, priority 2018, dated 2021)

Legend:
dimer interface of B-Raf = dimer interface of B-Raf (Homo sapiens, UniProt P15056); test: Dissociation constant (Kd) determination from intrinsic Trp fluorescence (ITF) measurements; type: binding; conditions: for Kd, binding affinity to the dimer forming interface of B-Raf (FIG. 1): no unit printed in this block
Description: The dissociation constant is an indicator of binding strength between two molecules. For the reaction: P+L↔PL Kd is expressed by Equation 1: Kd=[P][L]/[PL] Eq. 1 where [P] is the concentration of free Protein, [L] is the concentration of free Ligand, and [PL] is the Ligand-bound-Protein.
Fluorescence intensity was measured with a Hitachi F-2500 fluorescence spectrophotometer. A 1.6 mL of protein solution (0.5 μM) was placed in a cuvette and equilibrated at 15° C. for 1 hour. After equilibration, small increments (2-15 μL) of the ligand solution were injected in the cuvette. The experiments were performed in 20 mM Hepes buffer (pH 7.5), 10 mM MgCl2, 30 mM NaCl. […] The slits were set at 10 and 10 nm in the excitation and emission respectively. To determine dilution effect of B-Raf (due to ligand addition) and any fluorescence effect by unbound ligand, a blank sample containing Trp with the same fluorescence signal, was titrated with ligand additions as described above. The sample absorbance was kept below 0.1 to minimize the inner filter effect.
Dissociation constant of B-Raf/Ligand was calculated by fitting data in Eq. 2.
Data were analyzed using Origin 7, using the one site bind function for nonlinear fit.

[1] = tested on: NRASQ61K-mutant SBC12 melanoma cells; test: Western blotting of MEK/ERK signaling in melanoma cells; conditions: peptide added to SBC12 cells; 1 μM PLX4032 or DMSO; Western blot
Description: Following recovery at 37° C. for 30 minutes, the cells were treated with 1 μM PLX4032 for 1 hour or DMSO as a vehicle control. Subsequently, the cells were harvested, lysed using RIPA buffer and analyzed by Western blotting using the indicated antibodies. […] Four hours prior to harvest, the cells were treated with 1 μM vemurafenib (PLX4032), or the same volume of DMSO as vehicle control. RIPA buffer lysates were subjected to Western blotting using the indicated antibodies. Detection of HSP90 serves as a representative loading control.
Following recovery at 37° C. for 30 minutes, cells were treated with 1 μM PLX4032 for 1 hour or DMSO as a vehicle control. Subsequently, the cells were harvested, lysed using RIPA buffer, and analyzed by Western blotting using the indicated antibodies.

B-Raf = B-Raf (Homo sapiens, UniProt P15056); type: binding
B-Raf, sequence (P15056 whole entry): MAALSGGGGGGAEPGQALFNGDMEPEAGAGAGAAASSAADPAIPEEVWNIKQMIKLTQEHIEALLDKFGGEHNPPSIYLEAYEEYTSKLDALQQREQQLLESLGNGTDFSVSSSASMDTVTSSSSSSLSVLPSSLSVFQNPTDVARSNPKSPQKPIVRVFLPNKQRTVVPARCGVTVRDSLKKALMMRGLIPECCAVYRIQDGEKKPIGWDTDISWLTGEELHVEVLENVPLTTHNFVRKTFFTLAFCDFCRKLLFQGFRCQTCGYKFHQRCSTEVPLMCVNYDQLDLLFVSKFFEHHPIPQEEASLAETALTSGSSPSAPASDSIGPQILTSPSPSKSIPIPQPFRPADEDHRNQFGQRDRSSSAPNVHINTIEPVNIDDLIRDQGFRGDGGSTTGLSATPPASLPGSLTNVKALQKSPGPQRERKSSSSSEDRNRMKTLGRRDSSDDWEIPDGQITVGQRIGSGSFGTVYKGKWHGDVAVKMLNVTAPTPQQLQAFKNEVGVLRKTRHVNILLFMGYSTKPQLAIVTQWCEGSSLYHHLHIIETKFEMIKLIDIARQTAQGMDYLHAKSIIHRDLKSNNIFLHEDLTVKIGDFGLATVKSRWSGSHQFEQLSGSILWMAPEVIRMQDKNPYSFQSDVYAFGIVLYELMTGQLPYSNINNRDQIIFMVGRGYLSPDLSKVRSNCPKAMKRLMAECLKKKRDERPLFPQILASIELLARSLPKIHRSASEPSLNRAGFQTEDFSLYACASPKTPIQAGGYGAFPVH
Excerpt: An isothermal titration calorimeter composed of two identical cells surrounded by an adiabatic jacket was used to perform ITC measurements. The thermopile/thermocouple circuits were used to detect temperature differences between a reference cell (filled with buffer or water) and a sample cell containing the macromolecule. During an experiment, ligand is titrated into the sample cell in precisely known aliquots, causing heat to be either taken up or evolved (depending on the nature of the reaction). Measurements consist of the time-dependent input of power required to maintain equal temperatures between the sample and reference cells. In an exothermic reaction, the temperature in the sample cell increases upon addition of ligand. This causes the feedback power to the sample cell to be decreased (remember: a reference power is applied to the reference cell) in order to maintain an equal temperature between the two cells. In an endothermic reaction, the opposite occurs; the feedback circuit increases the power in order to maintain a constant temperature (isothermic/isothermal operation). […] The pattern of these heat effects as a function of the molar ratio [ligand]/[macromolecule] can then be analyzed to give the thermodynamic parameters of the interaction under study.

dimer interface of B-Raf, sequence (P15056 whole entry): as above

Molecule: CC[C@H](C)[C@H](NC(=O)[C@H](CC(N)=O)NC(=O)[C@@H](NC(=O)[C@H](Cc1cnc[nH]1)NC(=O)[C@H](CCCNC(=N)N)NC(=O)[C@@H](NC(=O)[C@H](CCCCN)NC(=O)[C@H](CCCNC(=N)N)NC(=O)[C@H](CC(C)C)NC(=O)[C@@H](NC(=O)CN)C(C)C)[C@@H](C)O)C(C)C)C(=O)N[C@@H](CC(C)C)C(=O)N[C@@H](CC(C)C)C(=O)N[C@@H](Cc1ccccc1)C(=O)N[C@@H](CCSC)C(=O)NCC(=O)N[C@@H](Cc1ccc(O)cc1)C(=O)N[C@@H](CO)C(=O)N[C@H](C(=O)O)[C@@H](C)O [SEQ ID NO: 1]
- Kd (dimer interface of B-Raf): ~3840 nM

Molecule: GVLRKTHHVNILGFWGYST [SEQ ID NO: 2]
- Kd, binding affinity to the dimer forming interface of B-Raf (FIG. 1) (dimer interface of B-Raf): no measurable binding

Molecule: GVLRKTRHVNILLDMGYST [SEQ ID NO: 14]
- Kd, binding affinity to the dimer forming interface of B-Raf (FIG. 1) (dimer interface of B-Raf): no measurable binding

Molecule: CC[C@H](C)[C@H](NC(=O)[C@H](CC(N)=O)NC(=O)[C@@H](NC(=O)[C@H](Cc1c[nH]cn1)NC(=O)[C@H](CCCNC(=N)N)NC(=O)[C@@H](NC(=O)[C@H](CCCCN)NC(=O)[C@H](CCCNC(=N)N)NC(=O)[C@H](CC(C)C)NC(=O)[C@@H](N)C(C)C)[C@@H](C)O)C(C)C)C(=O)N[C@@H](CC(C)C)C(=O)N[C@@H](CC(C)C)C(=O)N[C@@H](Cc1ccccc1)C(=O)N[C@@H](CCSC)C(=O)NCC(=O)O [SEQ ID NO: 17]
- downstream signaling of MEK and ERK (pMEK, pERK) [1]: reduce downstream signaling of MEK and ERK

Molecule: CC[C@H](C)[C@H](NC(=O)[C@H](CC(N)=O)NC(=O)[C@@H](NC(=O)[C@H](Cc1c[nH]cn1)NC(=O)[C@H](CCCNC(=N)N)NC(=O)[C@H](C)NC(=O)[C@H](CCCCN)NC(=O)[C@H](CCCNC(=N)N)NC(=O)[C@H](CC(C)C)NC(=O)[C@@H](NC(=O)CN)C(C)C)C(C)C)C(=O)N[C@@H](CC(C)C)C(=O)N[C@@H](CC(C)C)C(=O)N[C@@H](Cc1ccccc1)C(=O)N[C@@H](CCSC)C(=O)NCC(=O)N[C@@H](Cc1ccc(O)cc1)C(=O)N[C@@H](CO)C(=O)N[C@H](C(=O)O)[C@@H](C)O [SEQ ID NO: 8]
- ΔH of binding (ITC) (B-Raf): -8.32 kcal/mol
- ΔS of binding (ITC) (B-Raf): −28.4 J/mol·K

Molecule: CC[C@H](C)[C@H](NC(=O)[C@H](CC(N)=O)NC(=O)[C@@H](NC(=O)[C@H](Cc1cnc[nH]1)NC(=O)[C@H](CCCNC(=N)N)NC(=O)[C@@H](NC(=O)[C@H](CCCCN)NC(=O)[C@H](CC(C)C)NC(=O)[C@H](CC(C)C)NC(=O)[C@@H](NC(=O)CN)C(C)C)[C@@H](C)O)C(C)C)C(=O)N[C@@H](CC(C)C)C(=O)N[C@@H](CC(C)C)C(=O)N[C@@H](Cc1ccccc1)C(=O)N[C@@H](CCSC)C(=O)NCC(=O)N[C@@H](Cc1ccc(O)cc1)C(=O)N[C@@H](CO)C(=O)N[C@H](C(=O)O)[C@@H](C)O [SEQ ID NO: 6]
- Kd (dimer interface of B-Raf): ~540 nM

Molecule: GVLRKTRFVNILLFMGYST [SEQ ID NO: 9]
- Kd, binding affinity to the dimer forming interface of B-Raf (FIG. 1) (dimer interface of B-Raf): no measurable binding
